Usually inhibition stands for the change of the read-out against control, counted positive when it falls. In general, IC50 refers to the concentration at which inhibition is half-maximal. As usually defined, the EC50 is the concentration needed to bring the measured effect to its halfway point.

Six compounds from US7910622B2, “Modulation of bacterial quorum sensing with synthetic ligands” (Wisconsin Alumni Research Foundation, priority 2007, dated 2011) can be followed below.

Experiment [1] has as its target T1, LuxR (Aliivibrio fischeri, UniProt P35327).
T1 construct: a Δ-luxI derivative of V. fischeri ES114, in which the native lux operon behaves as the bioluminescent reporter; endogenous in cells; host or cells: V. fischeri ES114 (Δ-luxI)
Description: cell-based. Set-up: species or system Vibrio fischeri. To be noted: for activation at 200 µM: read-out: V. fischeri-LuxR Activation [%], 200 μM ligand; for activation at 200 µM / V. fischeri-LuxR Activation [%]: normalized to OHHL; for V. fischeri-LuxR Activation [%]: 200 μM ligand. Put shortly:
(§1)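 Whole-cell luminescence reporter in V. fischeri ES114 (WT, Δ-luxI or Δ-luxR) or E. coli, overnight cultures diluted 1:10 and grown with compound at RT (E. coli 30° C) to OD600 0.35-0.4 (4-6 h). Luminescence normalized to cell density, triplicates; EC50/IC50 from sigmoidal fit.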

Experiment [2] has as its target T2, LasR (Pseudomonas aeruginosa, UniProt P25084).
T2 construct: expressed in transfected cells; host or cells: E. coli DH5α (pJN105L pSC11), arabinose-induced
Description: cell-based. The experiment is classed as cell-based. Particulars: for inhibition at 5 µM: read-out: E. coli-LasR Inhibition [%], 5 μM synthetic ligand against 7.5 nM OdDHL; for inhibition at 5 µM / E. coli-LasR Inhibition [%]: E. coli DH5α (pJN105L pSC11), normalized to OdDHL; for E. coli-LasR Inhibition [%]: 5 μM synthetic ligand against 7.5 nM OdDHL. The gist of the method: (§2)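 E. coli DH5α carrying pJN105L/pSC11 grown to OD600 0.3, LasR expression induced with arabinose (4 mg/mL), then incubated with AHLs at 37 °C to OD600 0.45. LasR activity read by β-galactosidase reporter assay; IC50/EC50 from sigmoidal dose-response fits.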

Experiment [3] addresses T2, LasR. Put plainly: cell-based. Particulars: for activation at 5 µM: read-out: E. coli-LasR Activation [%], 5 μM ligand; for activation at 5 µM / E. coli-LasR Activation [%]: E. coli DH5α (pJN105L pSC11), normalized to OdDHL; for E. coli-LasR Activation [%]: 5 μM ligand. Put shortly:
as §2

Experiment [4] deals with T1, LuxR. Put plainly: cell-based. The experiment is classed as cell-based, Vibrio fischeri. To be noted: for IC50: LuxR IC50, determined against 5 μM OHHL; for V. fischeri-LuxR Inhibition [%]: 5 μM synthetic ligand against 5 μM OHHL; for V. fischeri-LuxR Inhibition [%] / inhibition at 5 µM: V. fischeri ES114 (Δ-luxI), normalized to OHHL; for inhibition at 5 µM: read-out: V. fischeri-LuxR Inhibition [%], 5 μM synthetic ligand against 5 μM OHHL. Put shortly: as §1

A further experiment deals with elastase B production. Description: microbe, parasite or virus in culture. Type of experiment: cell-based, Pseudomonas aeruginosa. To be noted: for inhibition at 200 µM: Pseudomonas aeruginosa, PAO1, read-out: elastase B production inhibition; for elastase B production inhibition: Example 2, concentration not stated (20 or 200 tested). How it is done:
Elastase B production assay in P. aeruginosa. Elastase B activity in P. aeruginosa was measured according to a previously reported method, with the following modifications. P. aeruginosa PAO1 was grown overnight in LB media at 37° C., after which it was diluted to an OD600=0.1. Portions (2 mL) of this culture was added to test tubes containing synthetic compounds to give final concentrations of 20 μM or 200 μM and incubated for 12-14 h at 37° C. with 200 rpm shaking. The OD600 was measured for each tube, after which the contents of the tubes were filtered through a […] Whatman filter to remove all cellular matter. A 100 μL-aliquot of the supernatant was added to 900 μL of an Elastin Congo Red Solution (5 mg of Elastin Congo red substrate per 1 mL of 100 mM Tris-HCl, 1 mM CaCl2 (pH 7.2)) and incubated for 12 h at 37° C. with 250 rpm shaking. The contents of these tubes were then filtered in order to remove unreacted Elastin Congo red substrate. Elastase B activity was then calculated (normalized) by dividing the absorbance of the cleaved Congo red (OD492) by the cell density (OD600 of the cells before first filtration).
Elastase B production assay in P. aeruginosa. Elastase B activity in P. aeruginosa was measured according to a previously reported method, with the following modifications. P. aeruginosa PAO1 was grown overnight at 37° C. and then diluted 1:10 with fresh LB medium. Portions (2 mL) of this culture were added to test tubes containing synthetic compounds to give final compound concentrations of 20 μM or 200 μM. The tubes were incubated for 12-14 h at 37° C. The OD600 was measured for each tube, after which the contents of the tubes were filtered through a 0.2 μm Whatman filter to remove all cellular matter. A 100 μL aliquot of the supernatant was added to 900 μL of an elastin-Congo red solution (5 mg of elastin-Congo red substrate per 1 mL of buffer (100 mM Tris-HCl, 1 mM CaCl2, pH 7.2)) and incubated for 12 h at 37° C. with 250 rpm shaking. The contents of these tubes were then filtered in order to remove unreacted elastin-Congo red substrate, and the supernatant containing cleaved Congo red was isolated. A 200 μL aliquot of the supernatant was added to a 96-well multititer plate, and the OD492 was measured. Elastase B activity was calculated by dividing the absorbance of the cleaved Congo red solution (OD492) by the cell density (OD600 of the cells before first filtration).

The mark [5] stands for this setting: determined against 7.5 nM OdDHL, read-out: LasR IC50.

“Also recorded” adds a separate entry of the source. Where two headings read alike, the source gives them in different places.

T1 sequence (P35327 whole entry): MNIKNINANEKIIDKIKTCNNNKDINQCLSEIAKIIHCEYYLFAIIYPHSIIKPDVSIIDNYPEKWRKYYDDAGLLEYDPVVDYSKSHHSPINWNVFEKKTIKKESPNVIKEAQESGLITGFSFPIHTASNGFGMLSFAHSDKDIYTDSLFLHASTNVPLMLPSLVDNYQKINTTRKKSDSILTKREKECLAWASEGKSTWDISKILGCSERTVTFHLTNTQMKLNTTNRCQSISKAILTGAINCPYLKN
T2 sequence (P25084 whole entry): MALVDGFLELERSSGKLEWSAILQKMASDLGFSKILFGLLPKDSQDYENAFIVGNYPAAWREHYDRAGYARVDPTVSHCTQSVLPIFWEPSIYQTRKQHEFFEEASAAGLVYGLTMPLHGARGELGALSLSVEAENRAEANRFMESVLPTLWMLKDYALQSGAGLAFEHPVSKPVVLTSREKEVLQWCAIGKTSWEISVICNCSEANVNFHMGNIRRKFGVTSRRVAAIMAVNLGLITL

In the case of `O=C(Cc1ccc(-c2ccccc2)cc1)N[C@H]1CCOC1=O` [C18, 4-phenyl PHL], the “Activation (%)” value came to 7% on LuxR [1] (V. fischeri-LuxR, Library C primary agonism screen) and 0% on LasR [3] (E. coli-LasR, Library C primary agonism screen). Moreover, the activation at 200 µM at LuxR [1] (V. fischeri ES114 (Δ-luxI)) was 7%. Besides, the inhibition at 5 µM on LasR [2] is 20%. Further, the activation at 5 µM on LasR [3] turned out to be 0%. At LuxR [4], this compound registered an IC50 of 1060 nM. In addition, the “Inhibition (%)” value on LuxR [4] (V. fischeri-LuxR, Library C primary antagonism screen) turned out to be 79%. In addition, the inhibition at 200 µM with elastase B production is 4%.

On to `O=C(CCCc1c[nH]c2ccccc12)N[C@H]1CCOC1=O` [A18, indole AHL, reference compound], for which the “V. fischeri-LuxR Activation [%]” value at LuxR [1] (V. fischeri ES114 (Δ-luxI)) is 3%. Besides, the “E. coli-LasR Inhibition [%]” value on LasR [2] was determined as 36%. In addition, the IC50 at LasR [2] (setting [5]) was found to be 8380 nM. Further, the “E. coli-LasR Activation [%]” value at LasR [3] was 3%. The “V. fischeri-LuxR Inhibition [%]” value on LuxR [4] is 72%. In addition, the “elastase B production inhibition” value in the experiment with elastase B production (P. aeruginosa PAO1) was roughly 67%.

Consider `O=C(Cc1ccc(Br)cc1)N[C@H]1CCOC1=O` [A17, 4-bromo-phenylacetanoyl HL, reference compound], for which the activation at 200 µM on LuxR [1] (V. fischeri ES114 (Δ-luxI)) stood at 3%. In addition, on LasR [2], the IC50 was determined as 3890 nM and the “E. coli-LasR Inhibition [%]” value came to 28%. Further, the activation at 5 µM on LasR [3] was found to be 0%. For the same compound, the “V. fischeri-LuxR Inhibition [%]” value on LuxR [4] stood at 79%. Also, the “elastase B production inhibition” value with elastase B production (P. aeruginosa PAO1) was “ca. 76%”.

Regarding 3-nitro PHL [B17], the EC50 on LuxR [1] (V. fischeri ES114 (Δ-luxI), read-out: LuxR EC50) worked out at 350 nM. Besides, the “luminescence induced higher than native ligand OHHL” value on LuxR [1] (primary agonism assay, 200 μM, same concentration as OHHL) was 29%. Also, the “LasR: concentration at which the compound elicits its maximal inhibition (value in parentheses)” value at LasR [2] (against 7.5 nM OdDHL, dose response curve did not reach 100% inhibition) stood at 2.0 µM. Moreover, the IC50 on LasR [2] (setting [5]) was found to be 610 nM. The “E. coli-LasR Activation [%]” value at LasR [3] is 11%. Besides, the “V. fischeri-LuxR Inhibition [%]” value on LuxR [4] is recorded as −15%. For the same compound, the “activation of elastase B production at high concentration” value in the experiment with elastase B production (P. aeruginosa PAO1, 10-fold higher concentration (200 vs 20)) was “activate elastase B production; also recorded: capable of both inhibiting and activating elastase B production”.

With `O=C(Cc1ccc(Br)cc1)N[C@H]1CCOC1=O` [compound 8, N-(4-bromo-phenylacetanoyl)-L-homoserine lactone, reference compound], the “V. fischeri-LuxR Activation [%]” value at LuxR [1] (V. fischeri ES114 (Δ-luxI)) came out at 3%. Besides, the inhibition at 5 µM was roughly 25% on LasR [2] and roughly 76% at LuxR [4]. In addition, the IC50 on LasR [2] (read-out: LasR IC50, determined against 7.5 nM OdDHL) turned out to be 3890 nM; on LuxR [4], 3700 nM. In addition, the “E. coli-LasR Activation [%]” value on LasR [3] turned out to be 0%. Further, the inhibition at 200 µM in the experiment with elastase B production was determined as 77%.

In the case of `O=C(Cc1ccc(-c2ccccc2)cc1)NC1CCOC1=O` (stereo not shown) [B21, 4-phenyl PHL], the activation at 200 µM at LuxR [1] (V. fischeri ES114 (Δ-luxI)) is 7%. The inhibition at 5 µM on LasR [2] was 20%. Moreover, at LasR [3], the activation at 5 µM was 0%. Besides, at LuxR [4], the IC50 came out at 1060 nM and the inhibition at 5 µM was roughly 70%. Further, the “elastase B production inhibition” value with elastase B production (P. aeruginosa PAO1) is “poorly antagonized elastase B production”.
